For the assay, the target named is T1, human GR (Homo sapiens, UniProt P04150).
T1 sequence (P04150 1-777): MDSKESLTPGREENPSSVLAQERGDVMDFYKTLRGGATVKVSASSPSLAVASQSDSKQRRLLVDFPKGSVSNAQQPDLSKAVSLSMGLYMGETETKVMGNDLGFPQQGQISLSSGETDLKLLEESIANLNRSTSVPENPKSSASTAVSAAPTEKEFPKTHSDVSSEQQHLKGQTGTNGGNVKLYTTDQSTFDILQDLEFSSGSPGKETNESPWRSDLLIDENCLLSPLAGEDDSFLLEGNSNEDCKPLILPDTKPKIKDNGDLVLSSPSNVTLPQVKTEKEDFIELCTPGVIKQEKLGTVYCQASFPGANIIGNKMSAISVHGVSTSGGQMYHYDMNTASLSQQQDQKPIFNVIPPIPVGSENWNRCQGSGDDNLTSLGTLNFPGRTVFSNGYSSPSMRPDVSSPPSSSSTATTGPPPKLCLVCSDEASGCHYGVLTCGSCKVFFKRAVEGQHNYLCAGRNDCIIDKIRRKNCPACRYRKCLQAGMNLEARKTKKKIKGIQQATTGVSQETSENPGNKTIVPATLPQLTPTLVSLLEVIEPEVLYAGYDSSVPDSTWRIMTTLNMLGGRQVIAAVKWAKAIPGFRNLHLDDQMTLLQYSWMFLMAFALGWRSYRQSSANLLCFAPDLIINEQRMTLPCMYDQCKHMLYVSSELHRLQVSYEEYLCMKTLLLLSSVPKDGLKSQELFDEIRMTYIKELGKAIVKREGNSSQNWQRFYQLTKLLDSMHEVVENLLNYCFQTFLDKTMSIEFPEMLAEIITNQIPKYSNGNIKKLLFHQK
Put plainly: Trans-Activation Modulation of Glucocorticoid Receptor (GRAMMER), MMTV-LUC reporter, agonist mode. It counts as cell-based. On the set-up: endogenous in cells. To be noted: for Emax: A549, A549 cells, maximum activity, read-out: Transactivation A549 Cells GRAMMER Emax; for EC50: A549 cells, inflection point, read-out: Transactivation A549 Cells GRAMMER IP. The text has this:
This assay assesses the ability of test compounds to control transcription from the MMTV-LUC reporter gene in lung adenocarcinoma A549 cells or MDA-MB-453 cells, a human breast cancer cell line that naturally expresses the human GR. The assay measures induction of a modified MMTV LTR/promoter linked to the LUC reporter gene.
The routine transient assay consists of plating 7,000-25,000 cells/well of a white, clear-bottom 96-well plate. Alternatively, 384-well plates can be used at a cell concentration of 10,000/well. The media that the cells are plated in is “exponential growth medium” which consists of phenol red-free RPMI1640 containing 10% FBS, 4 mM L-glutamine, 20 mM HEPES, 10 ug/mL human insulin, and 20 ug/mL gentamicin. Incubator conditions are 37° C. and 5% CO2. The transfection is done in batch mode. The cells are trypsinized and counted to the right cell number in the proper amount of fresh media. It is then gently mixed with the FuGene6/DNA mix and plated onto the 96 or 384-well plate, all the wells receive 100 uL or 40 uL, respectively, of medium+lipid/DNA complex then incubated 37° C. overnight. The transfection cocktail consists of serum-free OptiMEM, FuGene6 reagent and DNA. The manufacturer's (Roche Biochemical) protocol for cocktail setup is as follows: The lipid to DNA ratio is approximately 2.5:1 and the incubation time is 20 min at room temperature. Sixteen to 24 hours after transfection, the cells are treated with dexamethasone to a final concentration of 10 nM as well as the compound of interest, such that final DMSO (vehicle) concentration is equal to or less than 1%. Each plate also contains samples that are treated with 10 nM dexamethasone alone, which is used as the 100% activity control. The cells are exposed to the compounds for 24 hours. After 24 hours, the cells are lysed by a Promega cell culture lysis buffer for approximately 30 min and then the luciferase activity in the extracts is assayed in the 96-well format luminometer. In 384-well format, Steady-Glo (Promega) or Steady-Lite (PerkinElmer) can be used by adding an equal volume of reagent to the media present in each well. Activity induced by 10 nM dexamethasone alone is set at 100% activity. Antagonist activity is calculated by determining the decrease in dexamethasone-induced activity in response to compound treatment relative to samples that were treated with dexamethasone alone. […] This transactivation assay can be performed in an agonist and antagonist mode to identify these different activities.

As usually defined, the Emax is the greatest response seen or fitted, relative to the assay's reference. Regarding `C[C@]12Cc3cnn(-c4ccc(F)cc4)c3C=C1CC[C@@H]2CN(CCc1ccccc1F)S(=O)(=O)Cc1cccc(Cl)c1` [Example 106, 1-(3-chlorophenyl)-N-[2-(2-fluorophenyl)ethyl]-N-{[(4αR,5S)-1-(4-fluorophenyl)-4α-methyl-1,4,4α,5,6,7-hexahydrocyclopenta[f]indazol-5-yl]methyl}methanesulfonamide], the maximal effect (Emax) amounted to 82.8% and the EC50 came out at 0.328 µM.
`C[C@]12Cc3cnn(-c4ccc(F)cc4)c3C=C1CC[C@@H]2CN(CCc1ccccc1F)S(=O)(=O)Cc1ccccc1Cl` [Example 107, 1-(2-chlorophenyl)-N-[2-(2-fluorophenyl)ethyl]-N-{[(4αR,5S)-1-(4-fluorophenyl)-4α-methyl-1,4,4α,5,6,7-hexahydrocyclopenta[f]indazol-5-yl]methyl}methanesulfonamide]: the Emax amounted to 73% and the EC50 came out at 0.395 µM.
For the compound `C[C@]12Cc3cnn(-c4ccc(F)cc4)c3C=C1CC[C@@H]2CN(CCc1ccccc1F)S(=O)(=O)Cc1ccccc1C(F)(F)F` [Example 108, N-[2-(2-fluorophenyl)ethyl]-N-{[(4αR,5S)-1-(4-fluorophenyl)-4α-methyl-1,4,4α,5,6,7-hexahydrocyclopenta[f]indazol-5-yl]methyl}-1-[2-(trifluoromethyl)phenyl]methanesulfonamide], the Emax was 46% and the EC50 was 0.521 µM.
On the same counts, the results for `CC(C1CCC2=Cc3c(cnn3-c3ccc(F)cc3)C[C@@]21C)N(CC1CC1)S(=O)(=O)CC(F)(F)F` (stereo partly drawn) [Example 109, N-(cyclopropylmethyl)-2,2,2-trifluoro-N-{1-[(4αR)-1-(4-fluorophenyl)-4α-methyl-1,4,4α,5,6,7-hexahydrocyclopenta[f]indazol-5-yl]ethyl}ethanesulfonamide] are 54.1% and 0.209 µM.
Consider `C[C@]12Cc3cnn(-c4ccc(F)cc4)c3C=C1CC[C@@H]2CN(CC1CCCO1)S(=O)(=O)Cc1cccc(C(F)(F)F)c1` (stereo partly drawn) [Example 110, N-{[(4αR,5S)-1-(4-fluorophenyl)-4α-methyl-1,4,4α,5,6,7-hexahydrocyclopenta[f]indazol-5-yl]methyl}-N-(tetrahydrofuran-2-ylmethyl)-1-[3-(trifluoromethyl)phenyl]methanesulfonamide], for which the maximal response (Emax) is 4.9% and the EC50 amounted to 1.1 µM.
On the same counts, the results for `C[C@]12Cc3cnn(-c4ccc(F)cc4)c3C=C1CC[C@@H]2CN(CCc1ccccc1F)S(=O)(=O)Cc1ccc(Cl)c(Cl)c1` [Example 111, 1-(3,4-dichlorophenyl)-N-[2-(2-fluorophenyl)ethyl]-N-{[(4αR,5S)-1-(4-fluorophenyl)-4α-methyl-1,4,4α,5,6,7-hexahydrocyclopenta[f]indazol-5-yl]methyl}methanesulfonamide] are 37.6% and 0.748 µM.
On the same counts, the results for `C[C@H](O)CN(C[C@H]1CCC2=Cc3c(cnn3-c3ccc(F)cc3)C[C@@]21C)S(=O)(=O)c1ccc(F)c(Cl)c1` [Example 112, 3-chloro-4-fluoro-N-{[(4αR,5S)-1-(4-fluorophenyl)-4α-methyl-1,4,4α,5,6,7-hexahydrocyclopenta[f]indazol-5-yl]methyl}-N-[(2S)-2-hydroxypropyl]benzenesulfonamide] are 33.4% and 0.423 µM.
On the same counts, the results for `C[C@H](O)CN(C[C@H]1CCC2=Cc3c(cnn3-c3ccc(F)cc3)C[C@@]21C)S(=O)(=O)CC(F)(F)F` [Example 113] are 85.4% and 0.0547 µM.
On to `C[C@@H](CN(C[C@H]1CCC2=Cc3c(cnn3-c3ccc(F)cc3)C[C@@]21C)S(=O)(=O)CC(F)(F)F)OS(=O)(=O)CC(F)(F)F` [Example 114, (1S)-2-{{[(4αR,5S)-1-(4-fluorophenyl)-4α-methyl-1,4,4α,5,6,7-hexahydrocyclopenta[f]indazol-5-yl]methyl}[(2,2,2-trifluoroethyl)sulfonyl]amino}-1-methylethyl 2,2,2-trifluoroethanesulfonate], for which the maximum response (Emax) is 80.3% and the EC50 came out at 0.161 µM.
In the case of `C[C@@H](O)CN(C[C@H]1CCC2=Cc3c(cnn3-c3ccc(F)cc3)C[C@@]21C)S(=O)(=O)c1ccc(F)c(Cl)c1` [Example 115, 3-chloro-4-fluoro-N-{[(4αR,5S)-1-(4-fluorophenyl)-4α-methyl-1,4,4α,5,6,7-hexahydrocyclopenta[f]indazol-5-yl]methyl}-N-[(2R)-2-hydroxypropyl]benzenesulfonamide], the Emax is 26.1% and the EC50 was 0.786 µM.
Regarding `C[C@]12Cc3cnn(-c4ccc(F)cc4)c3C=C1CC[C@@H]2CN(CCc1ccccc1O)S(=O)(=O)c1ccccc1F` [Example 116, 2-fluoro-N-{[(4αR,5S)-1-(4-fluorophenyl)-4α-methyl-1,4,4α,5,6,7-hexahydrocyclopenta[f]indazol-5-yl]methyl}-N-[2-(2-hydroxyphenyl)ethyl]benzenesulfonamide], the Emax came out at 73.5% and the EC50 was determined as 0.676 µM.
For `C[C@]12Cc3cnn(-c4ccc(F)cc4)c3C=C1CC[C@@H]2CN(CCO)S(=O)(=O)c1ccccc1C(N)=O` [Example 117, 2-{[{[(4αR,5S)-1-(4-fluorophenyl)-4α-methyl-1,4,4α,5,6,7-hexahydrocyclopenta[f]indazol-5-yl]methyl}(2-hydroxyethyl)amino]sulfonyl}benzamide], in that order: 45.1% and 0.449 µM.
`COCCN(C[C@H]1CCC2=Cc3c(cnn3-c3ccc(F)cc3)C[C@@]21C)S(=O)(=O)CCN1C(=O)c2ccccc2C1=O` [Example 118, 2-(1,3-dioxo-1,3-dihydro-2H-isoindol-2-yl)-N-{[(4αR,5S)-1-(4-fluorophenyl)-4α-methyl-1,4,4α,5,6,7-hexahydrocyclopenta[f]indazol-5-yl]methyl}-N-(2-methoxyethyl)ethanesulfonamide]: the Emax is 8.7% and the EC50 is 0.853 µM.
With `COc1ccccc1CCN(C[C@H]1CCC2=Cc3c(cnn3-c3ccc(F)cc3)C[C@@]21C)S(=O)(=O)Cc1cccc(C(F)(F)F)c1` [Example 119, N-{[(4αR,5S)-1-(4-fluorophenyl)-4α-methyl-1,4,4α,5,6,7-hexahydrocyclopenta[f]indazol-5-yl]methyl}-N-[2-(2-methoxyphenyl)ethyl]-1-[3-(trifluoromethyl)phenyl]methanesulfonamide], the maximal response (Emax) is 6.6% and the EC50 came to 0.202 µM.
Regarding `COc1ccccc1CCN(C[C@H]1CCC2=Cc3c(cnn3-c3ccc(F)cc3)C[C@@]21C)S(=O)(=O)CC(F)(F)F` [Example 120, 2,2,2-trifluoro-N-{[(4αR,5S)-1-(4-fluorophenyl)-4α-methyl-1,4,4α,5,6,7-hexahydrocyclopenta[f]indazol-5-yl]methyl}-N-[2-(2-methoxyphenyl)ethyl]ethanesulfonamide], the Emax was determined as 73.2% and the EC50 stood at 0.11 µM.
As for `C[C@]12Cc3cnn(-c4ccc(F)cc4)c3C=C1CC[C@@H]2CN(CCc1ccccc1F)S(=O)(=O)CCN1C(=O)c2ccccc2C1=O` [Example 121, 2-(1,3-dioxo-1,3-dihydro-2H-isoindol-2-yl)-N-[2-(2-fluorophenyl)ethyl]-N-{[(4αR,5S)-1-(4-fluorophenyl)-4α-methyl-1,4,4α,5,6,7-hexahydrocyclopenta[f]indazol-5-yl]methyl}ethanesulfonamide], the Emax is 15.9% and the EC50 came to 0.242 µM.

The values are drawn from patent US8299048B2, “Hexahydrocyclopentyl[f]indazole sulfonamides and derivatives thereof as selective glucocorticoid receptor modulators” (Merck Sharp & Dohme Corp., priority 2008, dated 2012).
